Assay results: patent US9708368B2, “Linear peptide antibiotics” (priority 2012, dated 2017)
In brackets after ≈: the same amount, converted by molar mass. Square brackets hold non-standard residues; d marks the D form. Peptide text beside a SMILES is read from it. * marks the point of attachment. X7 = CC1(C)[C@@H]2C[C@H]3OB([C@@H]4CCCN4*)O[C@@]3(C)[C@H]1C2; Biphenylcarbonyl(4'-Bu) = CCCCc1ccc(-c2ccc(C(=O)*)cc2)cc1; X1 = C[C@H](N*)B1OC2C[C@@H]3C[C@@H](C3(C)C)[C@]2(C)O1; Benzoyl(4-(4-Cl-Ph)) = O=C(c1ccc(-c2ccc(Cl)cc2)cc1)*; Pro(4S-NH2) = N[C@@H]1CN[C@H](C(=O)O)C1; Benzoyl(2,3-diOH) = O=C(c1cccc(O)c1O)*; Dab = NCC[C@H](N)C(=O)O; Dap = NC[C@H](N)C(=O)O; βAla = NCCC(=O)O

Tests used:
[1] = tested on: Escherichia coli strain MC4100 IMP-4213, which harbors an LptD mutation; conditions: Method B; E. coli MC4100 IMP-4213 (LptD mutation); 35° C., 22 hours
Summary of the method: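 Two-fold serial dilutions of compound inoculated at final OD600 0.0005, incubated static at 35 °C for 22 h, and growth read visually.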

[2] = target: E. coli SPase (Escherichia coli, UniProt P00803); assay: Biochemical SPase activity assay (fluorogenic peptide substrate), E. coli enzyme
[3] = target: S. aureus SPase (Staphylococcus aureus, UniProt P0A070); assay: biochemical
[4] = tested on: methicillin resistant Staphylococcus aureus (MRSA) strain USA300 (NRS384); conditions: Method B, 35° C., 22 hours

Compound	MIC (μg/mL) E. coli [1]	IC50 [2]	IC50 [3]	MIC (μg/mL) S. aureus [4]
CCCCc1ccc(-c2ccc(CNCC[C@H](NC(C)=O)C(=O)N[C@H](C(=O)N[C@@H](C)C(=O)N[C@@H](CCCCN)C(=O)N[C@@H](C)B3OC4C[C@@H]5C[C@@H](C5(C)C)[C@]4(C)O3)[C@@H](C)O)cc2)cc1 (stereo partly shown) [Compound 277]	32 µg/mL (≈ 36 µM)	680 nM	110 nM	0.5 µg/mL (≈ 0.563 µM)
C[C@H](NC(=O)[C@H](CCCCN)NC(=O)[C@H](C)NC(=O)[C@@H](NC(=O)[C@H](CCN)NC(=O)c1ccc(-c2ccc(C(F)(F)F)cc2)cc1)[C@@H](C)O)B1OC2C[C@@H]3C[C@@H](C3(C)C)[C@]2(C)O1 (stereo partly shown) [Compound 237]	2 µg/mL (≈ 2.29 µM)	16 nM	210 nM	0.71 µg/mL (≈ 0.814 µM)
CCCCc1ccc(-c2ccc(C(=O)N[C@@H](CCN)C(=O)N[C@H](C(=O)N[C@@H](C)C(=O)N[C@@H](CCCCN)C(=O)N[C@@H](C)B3OC4C[C@@H]5C[C@@H](C5(C)C)[C@]4(C)O3)[C@@H](C)O)cn2)cc1 (stereo partly shown) [Compound 234]	0.5 µg/mL (≈ 0.581 µM)	8.3 nM	53 nM	0.4 µg/mL (≈ 0.465 µM)
CCCCc1ccc(-c2ccc(C(=O)NCCC(=O)N[C@@H](CCCCN)C(=O)N3CCC[C@H]3C(=O)N[C@@H](C)C(=O)N[C@@H](CC(N)=O)C(=O)N[C@@H](C)B3OC4C[C@@H]5C[C@@H](C5(C)C)[C@]4(C)O3)cc2)cc1 (stereo partly shown) [Compound 208] ({Biphenylcarbonyl(4'-Bu)-βAla}-KPAN-X1)	4 µg/mL (≈ 4.25 µM)	20 nM	5.7 nM	0.31 µg/mL (≈ 0.329 µM)
C[C@H](NC(=O)[C@H](CCCCN)NC(=O)[C@H](C)NC(=O)[C@@H](NC(=O)[C@H](CN)NC(=O)c1ccc(-c2ccc(Cl)cc2)cc1)[C@@H](C)O)B1OC2C[C@@H]3C[C@@H](C3(C)C)[C@]2(C)O1 (stereo partly shown) [Compound 167] ({Benzoyl(4-(4-Cl-Ph))}-[Dap]TAK-X1)	4 µg/mL (≈ 4.85 µM)	5.2 nM	190 nM	1.7 µg/mL (≈ 2.06 µM)
CCCCc1ccc(-c2ccc(C(=O)N[C@@H](CCCCN)C(=O)N[C@@H](C)C(=O)N[C@@H](CC(C)C)C(=O)N[C@@H](C)B(O)O)cc2)cc1 [Compound 191]	16 µg/mL (≈ 25.1 µM)	38000 nM	50000 nM	20 µg/mL (≈ 31.4 µM)
CCCCc1ccc(-c2ccc(C(=O)N[C@@H](CCN)C(=O)N[C@@H](CCN)C(=O)N[C@@H](C)C(=O)N[C@@H](CCCCNC(=O)c3cccc(O)c3O)C(=O)N[C@@H](C)B3OC4C[C@@H]5C[C@@H](C5(C)C)[C@]4(C)O3)cc2)cc1 (stereo partly shown) [Compound 190] ({Biphenylcarbonyl(4'-Bu)}-[Dab][Dab]AK(Benzoyl(2,3-diOH))-X1)	>64 µg/mL	1300 nM	64000 nM	64 µg/mL (≈ 64.3 µM)
CCCCc1ccc(-c2ccc(C(=O)NCCC(=O)N[C@@H](CCCCN)C(=O)N[C@H](C(=O)N[C@@H](C)C(=O)N[C@@H](CC(N)=O)C(=O)N3CCC[C@H]3B3O[C@@H]4C[C@@H]5C[C@@H](C5(C)C)[C@]4(C)O3)[C@@H](C)O)cc2)cc1 [Compound 200] ({Biphenylcarbonyl(4'-Bu)-βAla}-KTAN-X7)	64 µg/mL (≈ 65.9 µM)	5200 nM	1200 nM	>64 µg/mL
CCCCc1ccc(-c2ccc(C(=O)NCCC(=O)N3C[C@@H](N)C[C@H]3C(=O)N[C@H](C(=O)N[C@@H](C)C(=O)N[C@@H](CC(N)=O)C(=O)N[C@@H](C)B3OC4C[C@@H]5C[C@@H](C5(C)C)[C@]4(C)O3)[C@@H](C)O)cc2)cc1 (stereo partly drawn) [Compound 213] ({Biphenylcarbonyl(4'-Bu)-βAla}-[Pro(4S-NH2)]TAN-X1)	1.3 µg/mL (≈ 1.4 µM)	6.8 nM	7.7 nM	0.22 µg/mL (≈ 0.237 µM)
CCCCc1ccc(-c2ccc(C(=O)N[C@@H](CCN)C(=O)N[C@H](C(=O)N[C@@H](C)C(=O)N[C@@H](CCCCN)C(=O)N[C@@H](C)B3OC4C[C@@H]5C[C@@H](C5(C)C)[C@]4(C)O3)[C@@H](C)O)nc2)cc1 (stereo partly shown) [Compound 233]	1 µg/mL (≈ 1.16 µM)	29 nM	220 nM	0.5 µg/mL (≈ 0.581 µM)
